Consider five compounds from US20170143712A1, “Methods of Treating Cancers, Immune and Autoimmune Diseases, and Inflammatory Diseases Based on BTK Occupancy and BTK Resynthesis Rate” (Acerta Pharma B.V., priority 2014, published 2017).

Structures are written as SMILES. Like-named read-outs stand apart in the source and are kept apart here.

One data set has as its system psoriasis. The settings on record: tyrosine kinase inhibitors used for malignancies; cited from earlier work.
For data set [1], the system named is B cell receptor (BCR). The data set is described as follows: Ex vivo anti-IgM induced CD86 and CD69 expression on splenocyte B cells after oral dosing of mice. Type of data set: in vivo, mouse. To be noted: single oral 25 mg/kg; for inhibition at 25 mg/kg: Mus musculus, B-cell, 3-24 hours, read-out: CD69 % inhibition over the entire time course; for inhibition of ex vivo anti-IgM induced responses in B cells: 3 hours post-dose. The method, then:
(§1) B cell stimulation through the B cell receptor (BCR) with antibodies (e.g., anti-IgM) results in the activation of BTK and subsequent cellular changes, including the upregulation of various cell surface receptors. Measuring the inhibition of BCR induced protein phosphorylation downstream of Btk, and the inhibition of surface receptor upregulation provides a way to assess the Btk inhibitor activity. In the first study, the BTK target occupancy in splenocytes was measured over time, providing evidence for BTK resynthesis in the tissue compartment of interest.
(§2) Mice were sacrificed at 3, 6, 12, 18, and 24 hours after treatment with the BTK inhibitors (FIG. 27A, FIG. 27B, and FIG. 27C). Spleens were harvested and splenocyte preparations were made for flow cytometry analysis of B cell functions. Fresh or cryopreserved splenocytes were cultured with a-IgM to stimulate BCR, and the up-regulation of CD69, an early functional marker of B cell activation, was analyzed by flow cytometry.

The subject of a further data set is S6 phosphorylation. The data set is described as follows: Basal and anti-IgM induced S6 phosphorylation in splenocytes after oral dosing of mice. Type of data set: in vivo, mouse. To be noted: single oral 25 mg/kg; rank order Formula (II)>ibrutinib>Formula (XVII). The method, then: as §1, §2
A downstream marker of BTK activity, S6 phosphorylation, was also monitored in this study. […] In a second study, the effects of another inhibitor of BTK that covalently inactivates the kinase, Formula (XXI), were compared with Formula (II) to evaluate the return of BCR function and B cell activation, as illustrated in FIG. 29A and FIG. 29B.

The subject of data set [2] is established type II collagen-induced arthritis (CIA) in DBA/1 mice. The data set is described as follows: 14-day mouse established type II collagen-induced arthritis (CIA), PO QD (Example 10). Type of data set: in vivo. To be noted: for AUC (All Paws) - Corrected for Initial Score / Change in Body Weight (g) / Histopathology Summed Score Knees / Histopathology Summed Score Paws / Histopathology Summed Score Six-Joints / Paw Score AUC (All Paws): mean(SE); for disease-induced body weight loss (percent change from baseline) vs vehicle controls / arthritis scores measured daily vs vehicle controls: p<0.05 on the days printed; for arthritis scores measured daily vs vehicle controls: all paws. As to the method: Prior to dosing, the candidate anti-inflammatory agents were reconstituted either by vortexing or stirring. The candidate anti-inflammatory agents were administered to the DBA/1 mice daily (QD) by the oral (PO) route.
Immunization with heterologous type II collagen (CII) induces arthritis in mice of the DBA/1 strain, which is genetically susceptible to this disease. To develop an experimental model of autoimmunity more adequate for the study of human rheumatoid arthritis (RA), male DBA/1 mice were injected intradermally (ID) with bovine type II collagen to induce arthritis as reported by Trentham et al (Trentham D E, Townes A S, Kang A H Autoimmunity to type II collagen: an experimental model of arthritis. J. Exper. Med. 1977, 146:857-868) and Bendele A (Bendele A, Animal models of rheumatoid arthritis. J. Musculoskelet. Neuronal Interact. 2001, 1(4):377-85). Male DBA/1 mice (n=114) that were 6-7 weeks old and weighed approximately 18-27 grams (mean 22 g) at enrollment (arthritis day 1) were obtained from Taconic Farms, Inc. The male DBA/1 mice were at least 6 weeks old at time of first immunization and were housed 3-5/cage in shoe-box polycarbonate cages with wire tops, wood chip bedding, and suspended food and water bottles. These animals were identified by a distinct number of ink marks at the base of the tail delineating animal number. After enrollment, all cages were labeled with protocol number, group number, and animal numbers.
The male DBA/1 (n=10/group for arthritis) were anaesthetized with Isoflurane, shaved at the base of the tail, and injected intradermally with 150 μL of Freund's Complete Adjuvant (Difco, Detroit, Mich.) containing bovine type II collagen (BBP, batch #7) (1 mg/ml) at the base of the tail on day 0 and again on day 21. […] Randomization was done after swelling was obviously established in at least one paw (score of 1) and attempts were made to ensure approximately equal mean scores of 0.5-1 across groups at the time of enrollment. […] The male DBA/1 mice were terminated on arthritis day 14 (3 hours post-dose).
Efficacy evaluation of the administered anti-inflammatory agents was based on animal body weights, clinical arthritis scores, arthritis scores expressed as area under the curve (AUC), and histopathology on fore paws, hind paws, and knees. Histopathology results were expressed as 4 paws, knees only, or 6 joints (knees included). Day 13 was used as the endpoint for analysis of body weight change since the male DBA/1 mice were fasted overnight prior to necropsy on day 14.

Data set [3] concerns BCR signaling through BTK. As to the kind of experiment: Anti-IgM induced CD86 and CD69 on splenocyte B cells of CIA mice. Type of data set: in vivo, mouse. To be noted: splenocytes 3 hr after last dosing on day 14. The method, then:
FIG. 45 illustrates changes in a functional measure of BCR signalling through the CD86 marker. Mouse splenocytes were isolated from spleens from mice that were part of the mouse CIA study semi-therapeutic protocol, 3 hr after the last dosing on day 14 of the treatment and cryopreserved. After thawing, inhibition of anti-IgM-induced PD markers CD86 and CD69 on mouse splenocyte B cells were measured. Error bars represent the standard deviation for the 3 sets of splenocytes analyzed.
FIG. 46 illustrates changes in a functional measure of BCR signalling through the CD69 marker. Mouse splenocytes were isolated from spleens from mice that were part of the mouse CIA study semi-therapeutic protocol, 3 hr after the last dosing on day 14 of the treatment and cryopreserved. After thawing, inhibition of anti-IgM-induced PD markers CD86 and CD69 on mouse splenocyte B cells were measured. Error bars represent the standard deviation for the 3 sets of splenocytes analyzed.
Inhibition of the BCR signaling through BTK was evaluated by ex vivo stimulation of splenocytes using IgM and evaluation of CD86 and CD69 as functional responses of BCR stimulation.

The test system of data set [4] is B cell receptor (BCR). As to the kind of experiment: Ex vivo anti-IgM induced CD86 and CD69 expression on splenocyte B cells after oral dosing of mice. Type of data set: in vivo. The settings on record: Mus musculus, single oral 25 mg/kg, 3-24 hours, read-out: CD86 % inhibition over the entire time course.
In a further data set the target is T1, BTK (Mus musculus, UniProt P35991).
T1 construct: from tissue; host or cells: mouse spleen (splenocytes), animals dosed in vivo; A19 used DBA/1 mice with collagen-induced arthritis
T1 sequence (P35991 whole entry): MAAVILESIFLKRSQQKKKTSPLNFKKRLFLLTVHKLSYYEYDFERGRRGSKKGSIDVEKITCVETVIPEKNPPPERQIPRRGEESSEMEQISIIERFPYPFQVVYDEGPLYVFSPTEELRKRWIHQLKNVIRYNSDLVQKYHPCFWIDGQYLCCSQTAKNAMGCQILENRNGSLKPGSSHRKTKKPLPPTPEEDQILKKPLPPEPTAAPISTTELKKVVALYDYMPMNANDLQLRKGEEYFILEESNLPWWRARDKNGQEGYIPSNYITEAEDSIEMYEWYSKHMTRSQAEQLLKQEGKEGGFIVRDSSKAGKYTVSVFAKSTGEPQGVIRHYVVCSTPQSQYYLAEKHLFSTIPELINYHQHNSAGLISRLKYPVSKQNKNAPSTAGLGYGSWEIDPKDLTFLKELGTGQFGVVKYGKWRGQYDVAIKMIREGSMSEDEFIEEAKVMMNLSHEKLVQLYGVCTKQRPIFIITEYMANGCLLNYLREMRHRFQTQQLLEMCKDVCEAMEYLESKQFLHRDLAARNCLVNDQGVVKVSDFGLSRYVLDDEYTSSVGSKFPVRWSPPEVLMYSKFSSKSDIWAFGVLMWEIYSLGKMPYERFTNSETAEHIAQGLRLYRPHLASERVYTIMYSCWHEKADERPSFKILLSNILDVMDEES
As to the kind of experiment: BTK target occupancy in mouse splenocytes after a single oral dose. To be noted: single oral 25 mg/kg, 3 hours. Type of data set: in vivo.

On to `Cc1ccc(C(=O)Nc2ccc(CN3CCN(C)CC3)c(C(F)(F)F)c2)cc1C#Cc1cnc2cccnn12` [Ponatinib], for which, in the data set with psoriasis, the “effect on psoriasis / skin in patients” value is “induces an almost psoriasis-like disease”.

For orientation: inhibition means the relative decrease from the control value, in per cent. Regarding `C=CC(=O)N1CCC[C@@H](n2nc(-c3ccc(Oc4ccccc4)cc3)c3c(N)ncnc32)C1` [ibrutinib, (R)-1-(3-(4-amino-3-(4-phenoxyphenyl)-1H-pyrazolo[3,4-d]pyrimidin-1-yl)piperidin-1-yl)prop-2-en-1-one], in the data set on B cell receptor (BCR) [1], the inhibition at 25 mg/kg was 83.4% and the “inhibition of ex vivo anti-IgM induced responses in B cells” value is listed as “near complete inhibition”. The “inhibition of CD86 and CD69 expression” value in the data set with B cell receptor (BCR) [1] (persisting for 24 hours) is “partial inhibition”. For the same compound, the “basal state and anti-IgM induced S6 phosphorylation” value in the data set with S6 phosphorylation is “inhibited both basal state and anti-IgM induced S6 phosphorylation”. In addition, in data set [2] (1 mg/kg PO QD), the “AUC (All Paws) - Corrected for Initial Score” value (“AUC (All Paws) - Corrected” for short) is reported as 20.81(4.47), the “Change in Body Weight (g)” value is −1.28(0.69) g, the “Histopathology Summed Score Knees” value is listed as “‡10.15(1.16)” and the “Histopathology Summed Score Paws” value is given as 10.30(1.84). In data set [2] (1 mg/kg PO QD), the “Histopathology Summed Score Six-Joints” value is listed as 10.25(1.36), the “Paw Score AUC (All Paws)” value is recorded as 28.29(5.18) and the “disease-induced body weight loss (percent change from baseline) vs vehicle controls” value is listed as “significantly inhibited toward normal”. For the same compound, the “daily arthritis scores vs vehicle controls” value in data set [2] (1 mg/kg PO QD, prophylactic paws) was “significantly reduced toward normal”. Besides, in data set [2] (5 mg/kg PO QD), the “six-joint histopathology, reduction of summed scores vs vehicle controls” value is 79%; the “total body weight loss from enrollment to study termination” value is “significantly inhibited”; the “arthritis scores measured daily vs vehicle controls” value was “significantly reduced toward normal”; the “AUC (All Paws) - Corrected” value is on record as “*3.68(2.18)”. In data set [2] (5 mg/kg PO QD), the “Change in Body Weight (g)” value was “*0.45(0.65) g”, the “Histopathology Summed Score Paws” value is reported as “*3.63(1.07)”, the “Histopathology Summed Score Six-Joints” value is “*3.11(0.95)” and the “disease-induced body weight loss (percent change from baseline) vs vehicle controls” value was “significantly inhibited toward normal”. The “daily arthritis scores vs vehicle controls” value in data set [2] (5 mg/kg PO QD, prophylactic paws) is “significantly reduced toward normal”. Further, in data set [2] (25 mg/kg PO QD), the “six-joint histopathology, reduction of summed scores vs vehicle controls” value stood at 94%; the “total body weight loss from enrollment to study termination” value was “significantly inhibited”; the “arthritis scores measured daily vs vehicle controls” value was “significantly reduced toward normal”; the “AUC (All Paws) - Corrected” value was “*−4.09(1.58)”. For the same compound, in data set [2] (25 mg/kg PO QD), the “Change in Body Weight (g)” value is on record as “*0.83(0.62) g”, the “Histopathology Summed Score Knees” value is “*0.65(0.29)”, the “Histopathology Summed Score Paws” value is on record as “*0.91(0.48)” and the “Histopathology Summed Score Six-Joints” value is reported as “*0.83(0.30)”. In data set [2] (25 mg/kg PO QD), the “Paw Score AUC (All Paws)” value is listed as “*3.06(1.08)” and the “disease-induced body weight loss (percent change from baseline) vs vehicle controls” value was “significantly inhibited toward normal”. The “daily arthritis scores vs vehicle controls” value in data set [2] (25 mg/kg PO QD, prophylactic paws) is on record as “significantly reduced toward normal”. Further, the “daily arthritis scores vs vehicle controls” value in data set [2] (25 mg/kg PO QD, therapeutic paws) is given as “significantly reduced toward normal”. Moreover, the “spleen weights compared to vehicle controls” value in data set [2] (all dose groups PO QD) was “not significantly affected”. In data set [3], the “BCR-mediated signaling (anti-IgM induced CD86 and CD69)” value is “dose-responsive decreases in BCR-mediated signaling”. Moreover, the inhibition at 25 mg/kg with B cell receptor (BCR) [4] came to 62.9%.

With `C=CC(=O)Nc1cccc(Nc2nc(Nc3ccc(OCCOC)cc3)ncc2F)c1` [Formula (XVII), N-(3-((5-fluoro-2-((4-(2-methoxyethoxy)phenyl)amino)pyrimidin-4-yl)amino)phenyl)acrylamide], in the data set on B cell receptor (BCR) [1], the inhibition at 25 mg/kg was found to be 44.8% and the “inhibition of ex vivo anti-IgM induced responses in B cells” value is reported as “incomplete inhibition”. Also, the “basal state and anti-IgM induced S6 phosphorylation” value with S6 phosphorylation is “inhibited both basal state and anti-IgM induced S6 phosphorylation”. Also, on BTK, the “BTK target occupancy in splenocytes” value is recorded as “incomplete BTK target occupancy”. In addition, in the data set with B cell receptor (BCR) [4], the inhibition at 25 mg/kg was found to be 28.1%.

For `Cc1nc(Nc2ncc(C(=O)Nc3c(C)cccc3Cl)s2)cc(N2CCN(CCO)CC2)n1` [dasatinib], the “effect on psoriasis / skin in patients” value with psoriasis was “has not been reported to improve psoriasis”.

For the compound `Cc1ccc(NC(=O)c2ccc(CN3CCN(C)CC3)cc2)cc1Nc1nccc(-c2cccnc2)n1` [imatinib], the “effect on psoriasis / skin in patients” value in the data set with psoriasis is “may cause worsening of psoriasis”.
